Source: article PMC9926234, “Iterative computational design and crystallographic screening identifies potent inhibitors targeting the Nsp3 macrodomain of SARS-CoV-2” (Proceedings of the National Academy of Sciences of the …, 2023)
Like-named read-outs stand apart in the source and are kept apart here.

How the values were obtained:
SARS-CoV-2 NSP3 Mac1 [1] = target: T1, SARS-CoV-2 NSP3 Mac1 (Severe acute respiratory syndrome coronavirus 2, UniProt P0DTD1); format: binding; set-up: contains a conserved macrodomain enzyme (Mac1); conditions: for Spearman est (compound concentration vs apparent Tm): DSF dose responsiveness, 1 µM nsp3 mac1, adj p given
Procedure: DSF and associated compound handling was performed as described ([12]), with 5 µM dye “Fluorescent Yellow” (Jacquard iDye Cat #JID1405) used in place of SYPRO Orange. Compounds were tested in triplicate, at seven concentrations in two-fold serial dilutions, at a top concentration of either 1,000 or 100 μM. To minimize experimental noise arising from plate location-based effects on Tma, all concentrations and replicates for each compound were tested within a single region of the microtiter plates, including a DMSO-only control from which ΔTmas were calculated for that compound. […] For each compound, to determine statistical significance of the dose responsive thermal shift, the Spearman’s coefficient was calculated between compound concentration and ΔTma.

SARS-CoV-2 NSP3 Mac1 [2] = target: T1, SARS-CoV-2 NSP3 Mac1; format: binding; conditions: for Refined occupancy: ligand occupancy after refinement (phenix.refine); for HIT*: true hit = binding in crystallographic soaking or the HTRF-based binding assay
[3] = PanDDA 1-BDC of the event, compound stock 100 mM, Echo dispense volume 80 nl
[4] = PanDDA event map, 1 minus background density correction, crystal soaking of Mac1
[5] = crystal soak, compound stock 100 mM, Echo dispense volume 80 nl
[6] = ligand modeled in structure, compound stock 100 mM, Echo dispense volume 80 nl
[7] = PanDDA event map 1-BDC, crystal soak, Compound_concentration 100 mM, PanDDA run dmso_34 or nohits_35 per dataset
[8] = crystal soak, Compound_concentration 100 mM, Echo dispense 40 nl, PanDDA run dmso_34 or nohits_35 per dataset
[9] = maximal thermal upshift vs DMSO control

O=C(O)CC1Cc2ccccc2N1C(=O)c1ccc(NC(=O)NC2CC2)cc1 (stereo not shown) [8539_0039]
Spearman est (compound concentration vs apparent Tm) (SARS-CoV-2 NSP3 Mac1 [1]): 0.09
DSF max dTma (SARS-CoV-2 NSP3 Mac1 [1]; maximal thermal upshift): 2.09 ˚C

COC(=O)C1Cc2c(O)cccc2C1NC(=O)c1ccc(NC(=O)NC2CC2)cc1 (stereo not shown) [8539_0076]
Spearman est (compound concentration vs apparent Tm) (SARS-CoV-2 NSP3 Mac1 [1]): −0.19
DSF max dTma (SARS-CoV-2 NSP3 Mac1 [1]; maximal thermal upshift): 0 ˚C

COC(=O)C1(CO)CCN(c2ncnc3[nH]c4cc(F)ccc4c23)C1 (stereo not shown) [Compound Z9556]
1-BDC (SARS-CoV-2 NSP3 Mac1 [2]; [3]): 0.1
1-BDC (PanDDA) (SARS-CoV-2 NSP3 Mac1 [2]; [4]): 0.1
PanDDA hit? (SARS-CoV-2 NSP3 Mac1 [2]; [5]): TRUE
Modeled? (SARS-CoV-2 NSP3 Mac1 [2]; [6]): TRUE
Refined occupancy (SARS-CoV-2 NSP3 Mac1 [2]; crystal soaking of Mac1): 20

O=C(O)CC1CN(c2ncnc3[nH]c4ccccc4c23)CCO1 (stereo not shown) [Compound Z9596]
1-BDC (SARS-CoV-2 NSP3 Mac1 [2]; PanDDA 1-BDC of the event, compound stock 100 mM, Echo dispense volume 40 nl): 0.06
1-BDC (SARS-CoV-2 NSP3 Mac1 [2]; [3]): 0.09
1-BDC (PanDDA) (SARS-CoV-2 NSP3 Mac1 [2]; [4]): 0.06
PanDDA hit? (SARS-CoV-2 NSP3 Mac1 [2]; crystal soak, compound stock 100 mM, Echo dispense volume 40 nl): TRUE
PanDDA hit? (SARS-CoV-2 NSP3 Mac1 [2]; [5]): TRUE
Modeled? (SARS-CoV-2 NSP3 Mac1 [2]; ligand modeled in structure, compound stock 100 mM, Echo dispense volume 40 nl): TRUE
Refined occupancy (SARS-CoV-2 NSP3 Mac1 [2]; crystal soaking of Mac1): 12

O=C1CCCN1CCSc1ncnc2[nH]cnc12 [Compound Z9920]
1-BDC (SARS-CoV-2 NSP3 Mac1 [2]; PanDDA 1-BDC (background density correction) of the event, crystal soak 100 mM, PanDDA run dmso_34): 0.21
1-BDC (SARS-CoV-2 NSP3 Mac1 [2]; [4]): 0.21
PanDDA hit? (SARS-CoV-2 NSP3 Mac1 [2]; crystal soak, compound concentration 100 mM, PanDDA run dmso_34, series docking_lead-like_1): TRUE
Modeled? (SARS-CoV-2 NSP3 Mac1 [2]; ligand modeled in the crystal structure, crystal soak 100 mM, PanDDA run dmso_34): TRUE
Refined occupancy (SARS-CoV-2 NSP3 Mac1 [2]; crystal soaking of Mac1): 42

O=C1CC2(CC2)C(CSc2n[nH]c(-c3ccccn3)n2)O1 (stereo not shown) [FRESH00010267028]
Spearman est (compound concentration vs apparent Tm) (SARS-CoV-2 NSP3 Mac1 [1]): 0.52
DSF max dTma (SARS-CoV-2 NSP3 Mac1 [1]; maximal thermal upshift): 0.32 ˚C

O=S1(=O)CCC2(CCCN(c3ncnc4[nH]c5cc(F)ccc5c34)C2)C1 (stereo not shown) [LL1_0010]
Spearman est (compound concentration vs apparent Tm) (SARS-CoV-2 NSP3 Mac1 [1]): 0.3
DSF max dTma (SARS-CoV-2 NSP3 Mac1 [1]; maximal thermal upshift): 0.68 ˚C

NC(=O)C1CCCN(c2ncnc3[nH]c4cc(F)ccc4c23)C1 (stereo not shown) [LL1_0016]
Spearman est (compound concentration vs apparent Tm) (SARS-CoV-2 NSP3 Mac1 [1]): 0.18
DSF max dTma (SARS-CoV-2 NSP3 Mac1 [1]; maximal thermal upshift): 0.6 ˚C

O=C(O)[C@@H]1[C@@H]2CCN(c3ncnc4[nH]c5cc(F)ccc5c34)C[C@@H]21 [LL114_0037]
1-BDC (SARS-CoV-2 NSP3 Mac1 [2]; [3]): 0.17
1-BDC (SARS-CoV-2 NSP3 Mac1 [2]; [7]): 0.17
1-BDC (PanDDA) (SARS-CoV-2 NSP3 Mac1 [2]; [4]): 0.17
PanDDA hit? (SARS-CoV-2 NSP3 Mac1 [2]; [8]): TRUE
PanDDA hit? (SARS-CoV-2 NSP3 Mac1 [2]; [5]): TRUE
Modeled? (SARS-CoV-2 NSP3 Mac1 [2]; [6]): TRUE
Refined occupancy (SARS-CoV-2 NSP3 Mac1 [2]; crystal soaking of Mac1): 34

OCC1CN(c2ncnc3[nH]c4cc(F)ccc4c23)CC2(CCC2)O1 (stereo not shown) [LL123_0025]
1-BDC (SARS-CoV-2 NSP3 Mac1 [2]; [3]): 0.1
1-BDC (SARS-CoV-2 NSP3 Mac1 [2]; [7]): 0.09
1-BDC (PanDDA) (SARS-CoV-2 NSP3 Mac1 [2]; [4]): 0.07
1-BDC (SARS-CoV-2 NSP3 Mac1 [2]; PanDDA event map, crystal soak, Compound_concentration 100 mM, Echo_dispense_volume 40 nl): 0.07
PanDDA hit? (SARS-CoV-2 NSP3 Mac1 [2]; [8]): TRUE
PanDDA hit? (SARS-CoV-2 NSP3 Mac1 [2]; crystal soak, Compound_concentration 100 mM, Echo_dispense_volume 40 nl, PanDDA run (background map) dmso_34, nohits_35 or nohits_62): TRUE
PanDDA hit? (SARS-CoV-2 NSP3 Mac1 [2]; [5]): TRUE
Modeled? (SARS-CoV-2 NSP3 Mac1 [2]; ligand modeled, crystal soak, Compound_concentration 100 mM, Echo_dispense_volume 40 nl): TRUE
Refined occupancy (SARS-CoV-2 NSP3 Mac1 [2]; crystal soaking of Mac1): 14
HIT* (SARS-CoV-2 NSP3 Mac1 [2]): Y

CNc1ccc(C(=O)N2CC(C(=O)O)CC2(C)C)cn1 (stereo not shown) [REAL250001652488]
Spearman est (compound concentration vs apparent Tm) (SARS-CoV-2 NSP3 Mac1 [1]): 0.12
DSF max dTma (SARS-CoV-2 NSP3 Mac1 [1]; maximal thermal upshift): 0.21 ˚C

NC(=O)c1cc(N2CCCC[C@H]2C(=O)O)ncn1 [REAL250003324764]
Spearman est (compound concentration vs apparent Tm) (SARS-CoV-2 NSP3 Mac1 [1]): 0.14
DSF max dTma (SARS-CoV-2 NSP3 Mac1 [1]; maximal thermal upshift): 0.15 ˚C

CNc1ccc(C(=O)N2CC(C(=O)O)CC23CCOCC3)cn1 (stereo not shown) [REAL300007318908]
Spearman est (compound concentration vs apparent Tm) (SARS-CoV-2 NSP3 Mac1 [1]): 0.29
DSF max dTma (SARS-CoV-2 NSP3 Mac1 [1]; maximal thermal upshift): 0.04 ˚C

FC1(F)CCCC(Nc2ncnc3[nH]ccc23)C1 (stereo not shown) [SRH-0014]
1-BDC (SARS-CoV-2 NSP3 Mac1 [2]; [7]): 0.09
PanDDA hit? (SARS-CoV-2 NSP3 Mac1 [2]; [8]): TRUE

O=C(Cc1ccc2c(c1)CCO2)OCc1cc2ccccc2[nH]c1=O [Z0132]
DSF max dTma (SARS-CoV-2 NSP3 Mac1 [1]; [9]): 0.21 °C

CN(Cc1nnc2c(=O)[nH]ccn12)C(=O)COC1CC1 [Z0288]
DSF max dTma (SARS-CoV-2 NSP3 Mac1 [1]; [9]): 0.49 °C

Cc1cnc(COC(=O)C(C)(C)c2ccc(O)cc2)o1 [Z0329]
DSF max dTma (SARS-CoV-2 NSP3 Mac1 [1]; [9]): 0.06 °C

CC1CN(C(=O)CCc2nc(-c3ccncc3)no2)C1c1ccccc1 (stereo not shown) [Z0856]
DSF max dTma (SARS-CoV-2 NSP3 Mac1 [1]; [9]): 0.6 °C

COc1ccc(Cl)cc1Cn1cnc2c(N)ncnc21 [Z0953]
DSF max dTma (SARS-CoV-2 NSP3 Mac1 [1]; [9]): 0.27 °C

O=c1[nH]ccn2c(CSc3nc4ccccc4s3)nnc12 [Z1015]
DSF max dTma (SARS-CoV-2 NSP3 Mac1 [1]; [9]): 0.67 °C

Nc1ncnc(SCCc2cccc(Cl)c2Cl)n1 [Z1086]
DSF max dTma (SARS-CoV-2 NSP3 Mac1 [1]; [9]): 0.21 °C

Cc1ccc(-c2noc(CCCSC3CCCNC3=O)n2)cc1F (stereo not shown) [Z1121]
DSF max dTma (SARS-CoV-2 NSP3 Mac1 [1]; [9]): 0.57 °C

CN(Cc1cccc(O)c1)C(=O)Cc1ccncc1 [Z1186]
DSF max dTma (SARS-CoV-2 NSP3 Mac1 [1]; [9]): 0.19 °C

Nc1ncc(S(=O)(=O)N2CC(F)(F)C[C@H]2C(=O)O)cn1 [Z1314]
HIT* (SARS-CoV-2 NSP3 Mac1 [2]): Y

CC(C)c1noc(CCc2nc(-c3ccnc4[nH]ccc34)no2)n1 [Z1347]
DSF max dTma (SARS-CoV-2 NSP3 Mac1 [1]; [9]): 0 °C

Cc1cc(CSc2nnc3c(=O)[nH]c4ccccc4n23)no1 [Z1628]
DSF max dTma (SARS-CoV-2 NSP3 Mac1 [1]; [9]): 0.68 °C

Cc1ccccc1CNc1ncnc(-c2ccccc2)n1 [Z1635]
DSF max dTma (SARS-CoV-2 NSP3 Mac1 [1]; [9]): 0.85 °C

Cc1ccc(C(=O)N2CC[C@H](Oc3ccccc3)C2)cc1O [Z2024]
DSF max dTma (SARS-CoV-2 NSP3 Mac1 [1]; [9]): 0.36 °C

O=C(COC(=O)c1ccc2nsnc2c1)c1ccccc1 [Z2380]
DSF max dTma (SARS-CoV-2 NSP3 Mac1 [1]; [9]): 0.47 °C
